The text below walks through data of patent US8399451B2, “Heterocyclic compounds” (Bristol-Myers Squibb Company, priority 2009, dated 2013).

Assay [1] has as its target T1, S1P1 (Homo sapiens, UniProt P21453). Put plainly: S1P1 Binding Assay (33P-S1P radioligand competition, membranes). Details: expressed in transfected cells; host or cells: CHO cells. The following applies: membranes from CHO cells expressing human S1P1; 0.03 nM 33P-S1P; rounded to two digits. How it is done: Membranes were prepared from CHO cells expressing human S1P1. Cells were dissociated in buffer containing 20 mM HEPES, pH 7.5, 50 mM NaCl, 2 mM EDTA and Protease Inhibitor cocktail (Roche), and disrupted on ice using the Polytron homogenizer. The homogenate was centrifuged at 20,000 rpm (48,000 G) and the supernatant was discarded. The membrane pellets were resuspended in buffer containing 50 mM HEPES, pH 7.5, 100 mM NaCl, 1 mM MgCl2, 2 mM EDTA and stored in aliquots at −80° C. after protein concentration determination.
Binding was performed for 45 minutes at room temperature, terminated by collecting the membranes onto GF/B filter plates, and radioactivity was measured by TOPCOUNT®. The competition data of the test compounds over a range of concentrations was plotted as percentage inhibition of radioligand specific binding.
The results in Table A were rounded to two digits.
A general note: In a radioligand displacement assay an active substance lowers the binding of a labelled ligand.

A further assay concerns circulating lymphocytes. As to the kind of experiment: Blood Lymphocyte Reduction Assay (BLR) in Rodents. Format: in vivo. The following applies: Lewis rats, oral, vs vehicle (PEG300). How it is done: Blood Lymphocyte Reduction Assay (BLR) in Rodents
Lewis rats were dosed orally with test article (as a solution or suspension in the vehicle) or vehicle alone (polyethylene glycol 300, “PEG300”). Blood was drawn at 4 hr by retro-orbital bleeding. Blood lymphocyte counts were determined on an ADVIA® 120 Hematology Analyzer (Siemens Healthcare Diagnostics). The results were measured as a reduction in the percentage of circulating lymphocytes as compared to the vehicle treated group at the 4 hr measurement.

The next assay addresses T2, S1P3 (Homo sapiens, UniProt Q99500).
T2 construct: expressed in transfected cells; host or cells: EDG3-Ga15-bla HEK293T cells
Put plainly: Receptor [35S] GTPγS Binding Assay, membranes from EDG3-Ga15-bla HEK293T cells. The class given is biochemical. The following applies: * detection limit 31,000 nM or 62,000 nM. As to the method: (§1) Receptor [35S] GTPγS Binding Assays
(§2) Membranes prepared from S1P1/CHO cells or EDG3-Ga15-bla HEK293T cells were added to the compound plate (40 μl/well, final protein 3 μg/well) with MULTIDROP®. [^35S]GTP (1250 Ci/mmol, Perkin Elmer) was diluted in assay buffer: 20 mM HEPES, pH7.5, 10 mM MgCl2, 150 mM NaCl, 1 mM EGTA, 1 mM DTT, 10 μM GDP, 0.1% fatty acid free BSA, and 10 μg/ml Saponin to 0.4 nM. 40 μl of the [^35S] GTP solution was added to the compound plate with a final concentration of 0.2 nM. […] At the end of incubation, all the mixtures in the compound plate were transferred to a 384 well FB filter plates via GPCR robot system. […] 30 μl of MicroScint 20 scintillation fluid was added to each well for counting at Packard TOPCOUNT®.
(GTPγS resists hydrolysis and so accumulates on activated G proteins.)

Assay [2] concerns the target T1, S1P1. Put plainly: Receptor [35S] GTPγS Binding Assay, membranes from S1P1/CHO cells. The class given is biochemical. The following applies: for S1P3/S1P1 GTPγS (ratio of S1P3 GTPγS EC50 to S1P1 GTPγS EC50): selectivity ratio calculated from Table B, * may be greater than reported value due to S1P3 assay limits. Details: expressed in transfected cells; host or cells: S1P1/CHO cells. How it is done: as §1, §2

Where [3] appears, read: membranes from S1P1/CHO cells, read-out: S1P1 GTPγS EC50.

Where two headings read alike, the source gives them in different places.

T1 sequence (P21453 whole entry): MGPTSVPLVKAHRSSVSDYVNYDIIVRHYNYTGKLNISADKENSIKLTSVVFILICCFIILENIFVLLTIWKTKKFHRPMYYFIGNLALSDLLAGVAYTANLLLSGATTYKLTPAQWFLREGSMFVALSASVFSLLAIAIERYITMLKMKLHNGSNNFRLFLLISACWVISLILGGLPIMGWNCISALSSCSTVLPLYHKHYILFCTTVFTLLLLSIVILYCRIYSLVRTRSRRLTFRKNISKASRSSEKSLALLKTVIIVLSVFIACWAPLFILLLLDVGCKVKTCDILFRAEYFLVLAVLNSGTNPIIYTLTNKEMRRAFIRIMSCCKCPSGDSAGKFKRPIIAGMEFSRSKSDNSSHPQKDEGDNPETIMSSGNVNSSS
T2 sequence (Q99500 whole entry): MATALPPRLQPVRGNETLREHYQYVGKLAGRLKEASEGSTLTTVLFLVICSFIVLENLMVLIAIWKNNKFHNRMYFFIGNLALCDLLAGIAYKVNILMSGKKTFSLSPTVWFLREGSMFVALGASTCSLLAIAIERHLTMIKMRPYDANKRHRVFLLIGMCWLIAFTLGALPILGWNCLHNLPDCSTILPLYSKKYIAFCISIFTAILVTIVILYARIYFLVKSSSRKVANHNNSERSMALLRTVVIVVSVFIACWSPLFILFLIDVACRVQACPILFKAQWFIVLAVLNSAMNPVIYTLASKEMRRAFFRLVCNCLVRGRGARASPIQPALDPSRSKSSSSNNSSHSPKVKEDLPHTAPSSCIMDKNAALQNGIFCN

A word on the IC50: it is the concentration at which inhibition is half-maximal. Higher therefore signals weaker potency in that assay. On S1P1 [1], `CCCc1c(-c2nc(-c3ccc(C(O)CN4CCOC(C(=O)O)C4)cc3)no2)noc1-c1ccccc1` (stereo not drawn) [Example 11, 4-(2-Hydroxy-2-(4-(5-(5-phenyl-4-propylisoxazol-3-yl)-1,2,4-oxadiazol-3-yl)phenyl)ethyl)morpholine-2-carboxylic acid] showed an IC50 of 4.8 nM. In the case of `O=C(O)[C@H]1CCCN(C[C@@H](O)c2ccc(-c3noc(-c4onc(-c5ccccc5)c4C(F)(F)F)n3)cc2)C1` [Example 14, (S)-1-((S)-2-Hydroxy-2-(4-(5-(3-phenyl-4-(trifluoromethyl)isoxazol-5-yl)-1,2,4-oxadiazol-3-yl)phenyl)ethyl)piperidine-3-carboxylic acid], in the assay on circulating lymphocytes (dose 3 mg/kg), the “% Reduction in Lymphocytes at 4 hr.” value was determined as 83%. Consider `CCCc1c(-c2nc(-c3ccc(C(O)CN4CCCCC4C(=O)O)cc3)no2)noc1-c1ccccc1` (stereo not drawn) [Example 2, 1-(2-Hydroxy-2-(4-(5-(5-phenyl-4-propylisoxazol-3-yl)-1,2,4-oxadiazol-3-yl)phenyl)ethyl)piperidine-2-carboxylic acid], for which the IC50 on S1P1 [1] came out at 2.2 nM. What is called EC50 is the concentration at which the effect is half-maximal. Turning to `CCCc1c(-c2nc(-c3ccc(CCN4CCC[C@H](C(=O)O)C4)cc3)no2)noc1-c1ccccc1` [Comparative Compound 119, (S)-1-(4-(5-(5-Phenyl-4-propylisoxazol-3-yl)-1,2,4-oxadiazol-3-yl)phenethyl)piperidine-3-carboxylic acid, reference compound], the EC50 is > 62000 nM on S1P3 and 31000 nM on S1P1 [2] (read-out: S1P1 GTPγS EC50 value). The same compound came in with a half-inhibitory concentration (IC50) at S1P1 [1] of 420 nM. In addition, the “S1P3/S1P1 GTPγS (ratio of S1P3 GTPγS EC50 to S1P1 GTPγS EC50)” value was 2.3 on S1P1 [2] and 2.3* on S1P1 [2] (listed as Comp. 119). On to `O=C(O)CCC1CCCN(CC(O)c2ccc(-c3noc(-c4onc(-c5ccccc5)c4C(F)(F)F)n3)cc2)C1` (stereo not drawn) [Example 40, 3-(1-(2-Hydroxy-2-(4-(5-(3-phenyl-4-(trifluoromethyl)isoxazol-5-yl)-1,2,4-oxadiazol-3-yl)phenyl)ethyl)piperidin-3-yl)propanoic acid], for which the “% Reduction in Lymphocytes at 4 hr.” value in the assay with circulating lymphocytes (dose 5.5 mg/kg) is listed as 80%.

In the case of `CC(O)(CN1CCC[C@H](C(=O)O)C1)c1ccc(-c2noc(-c3onc(-c4ccccc4)c3C(F)(F)F)n2)cc1` (stereo partly drawn) [Example 17, (3S)-1-(2-Hydroxy-2-(4-(5-(3-phenyl-4-(trifluoromethyl)isoxazol-5-yl)-1,2,4-oxadiazol-3-yl)phenyl)propyl)piperidine-3-carboxylic acid], the 50% effective concentration (EC50) is 1200 nM on S1P3 and 320 nM at S1P1 [2] (setting [3]). On S1P1 [1], this compound had an IC50 of 28 nM. Moreover, on S1P1 [2], the “S1P3/S1P1 GTPγS (ratio of S1P3 GTPγS EC50 to S1P1 GTPγS EC50)” value was 3.8.

Take `CCCc1c(-c2nc(-c3ccc(C(O)CN4CCC[C@H](C(=O)O)C4)cc3)no2)noc1-c1ccccc1` (stereo partly drawn) [Example 4, (3S)-1-(2-Hydroxy-2-(4-(5-(5-phenyl-4-propylisoxazol-3-yl)-1,2,4-oxadiazol-3-yl)phenyl)ethyl)piperidine-3-carboxylic acid]: the “% Reduction in Lymphocytes at 4 hr.” value in the assay with circulating lymphocytes (dose 3 mg/kg) turned out to be 71%.

As for `O=C(O)[C@H]1CCCN(CC(O)c2ccc(-c3noc(-c4onc(-c5ccccc5)c4C(F)(F)F)n3)c(C(F)(F)F)c2)C1` (stereo partly drawn) [Example 26, (3S)-1-(2-Hydroxy-2-(4-(5-(3-phenyl-4-(trifluoromethyl)isoxazol-5-yl)-1,2,4-oxadiazol-3-yl)-3-(trifluoromethyl)phenyl)ethyl)piperidine-3-carboxylic acid], the 50% inhibitory concentration (IC50) at S1P1 [1] stood at 14 nM.

Take `CCCc1c(-c2nc(-c3ccc(C(O)CN4CC(C(=O)O)C4)cc3)no2)noc1-c1ccccc1` (stereo not drawn) [Example 1, 1-(2-Hydroxy-2-(4-(5-(5-phenyl-4-propylisoxazol-3-yl)-1,2,4-oxadiazol-3-yl)phenyl)ethyl)azetidine-3-carboxylic acid]: the half-maximal inhibitory concentration (IC50) at S1P1 [1] is 0.45 nM.

In turn, `O=C(O)C1CN(CC(O)c2ccc(-c3noc(-c4onc(-c5ccccc5)c4C(F)(F)F)n3)cc2)CCO1` (stereo not drawn) [Example 28, 4-(2-Hydroxy-2-(4-(5-(3-phenyl-4-(trifluoromethyl)isoxazol-5-yl)-1,2,4-oxadiazol-3-yl)phenyl)ethyl)morpholine-2-carboxylic acid] had an IC50 on S1P1 [1] of 31 nM.

For `O=C(O)[C@H]1CCCN(C[C@@H](O)c2ccc(-c3noc(-c4cnn(C5CCCCC5)c4C(F)(F)F)n3)cc2)C1` [Example 106, (S)-1-((S)-2-(4-(5-(1-cyclohcxyl-5-(trifluoromethyl)-1H-pyrazol-4-yl)-1,2,4-oxadiazol-3-yl)phenyl)-2-hydroxyethyl) piperidine-3-carboxylic acid], the figures for the half-maximal effective concentration (EC50) at S1P3 and at S1P1 [2] (setting [3]) were 2250 nM and 1 nM, respectively. Further, on S1P1 [2], the “S1P3/S1P1 GTPγS (ratio of S1P3 GTPγS EC50 to S1P1 GTPγS EC50)” value is 2250. `O=C(O)C[C@H]1CCCN(C[C@@H](O)c2ccc(-c3noc(-c4onc(-c5ccccc5)c4C(F)(F)F)n3)cc2)C1` [Example 18, 2-((3R)-1-(2-Hydroxy-2-(4-(5-(3-phenyl-4-(trifluoromethyl)isoxazol-5-yl)-1,2,4-oxadiazol-3-yl)phenyl)ethyl)piperidin-3-yl)acetic acid]: in the assay with circulating lymphocytes (dose 1 mg/kg), the “% Reduction in Lymphocytes at 4 hr.” value was 82%. Take `CCCc1c(-c2nc(-c3ccc(C(O)CN4CCCC(C(=O)N(CC)CC)C4)cc3)no2)noc1-c1ccccc1` (stereo not drawn) [Example 24, N,N-Diethyl-1-(2-hydroxy-2-(4-(5-(5-phenyl-4-propylisoxazol-3-yl)-1,2,4-oxadiazol-3-yl)phenyl)ethyl)piperidine-3-carboxamide]: the EC50 on S1P3 was found to be 3500 nM; on S1P1 [2] (setting [3]), 410 nM. This compound also returned a half-inhibitory concentration (IC50) at S1P1 [1] of 43 nM. In addition, the “S1P3/S1P1 GTPγS (ratio of S1P3 GTPγS EC50 to S1P1 GTPγS EC50)” value at S1P1 [2] is 8.6. In the case of `O=C(O)C[C@H]1CCCN(C[C@@H](O)c2ccc(-c3noc(-c4ncn(-c5ccc(Cl)cc5)c4C(F)(F)F)n3)cc2)C1` [Example 117, 2-((R)-1-((S)-2-(4-(5-(1-(4-Chlorophenyl)-5-(trifluoromethyl)-1H-imidazol-4-yl)-1,2,4-oxadiazol-3-yl)phenyl)-2-hydroxyethyl)piperidin-3-yl)acetic acid], the concentration for a half-maximal effect (EC50) at S1P3 was > 62000 nM; at S1P1 [2] (setting [3]) it was 26 nM. Further, the “S1P3/S1P1 GTPγS (ratio of S1P3 GTPγS EC50 to S1P1 GTPγS EC50)” value on S1P1 [2] was ≥ 2400*.

Compound `O=C(O)CC1CN(CC(O)c2ccc(-c3noc(-c4onc(-c5ccccc5)c4C(F)(F)F)n3)cc2)C1` (stereo not drawn) [Example 27, 2-(1-(2-Hydroxy-2-(4-(5-(3-phenyl-4-(trifluoromethyl)isoxazol-5-yl)-1,2,4-oxadiazol-3-yl)phenyl)ethyl)azetidin-3-yl)acetic acid] had an IC50 at S1P1 [1] of 14 nM.

`CCCc1c(-c2nc(-c3ccc(C(O)CN4CC[C@@H]4C(=O)O)cc3)no2)noc1-c1ccccc1` (stereo partly drawn) [Example 7, (2R)-1-(2-Hydroxy-2-(4-(5-(5-phenyl-4-propylisoxazol-3-yl)-1,2,4-oxadiazol-3-yl)phenyl)ethyl)azetidine-2-carboxylic acid] showed a half-inhibitory concentration (IC50) on S1P1 [1] of 12 nM.
